Literature values in PMC12390126, “Human Skin Permeation of Ethoxy- and Propoxypropanol Commonly Found in Water-Based Products” (Toxics, 2025).
Read-outs that look alike come from different tables or passages of the source.

Key:
[1] = set-up: method as in PMID 15251185; settings: frozen full thickness skin (1 mm), 32 °C, 57.8 mg/cm^2, 8 h; cited from earlier work
[2] = frozen full thickness skin, 32 °C, 4 h, cited from earlier work; for J ± SD / Kp ± SD: 56.1-61.7 mg/cm^2
[3] = dermatomed 0.8 mm, 32 °C, 24 h, cited from earlier work; for J ± SD / Kp ± SD: 109.6 (PGME) or 100.0 (PGBE) mg/cm^2

Molecule: dipropylene glycol methyl ether [DPGME]
- J ± SD [1]: 106.3 ± 37.6 µg/cm^2/h
- Kp ± SD [1]: 0.11 ± 0.04 10^−3 cm/h
- Tlag ± SD [1]: 1.51 ± 0.48 h

Molecule: CCCCOCC(C)O (stereo not drawn) [PGBE, propylene glycol butyl ether]
- J ± SD [2]: 17 ± 5 µg/cm^2/h
- Kp ± SD [2]: 0.02 ± 0.005 10^−3 cm/h
- Tlag ± SD [2]: 0.62 ± 0.03 h
- J ± SD ([3]; fresh skin): 7.93 ± 1.57 µg/cm^2/h
- Kp ± SD ([3]; fresh skin): 0.009 ± 0.002 10^−3 cm/h
- Tlag ± SD ([3]; fresh skin): 0.89 ± 0.13 h
- J ± SD ([3]; frozen skin): 44.1 ± 16.2 µg/cm^2/h
- Kp ± SD ([3]; frozen skin): 0.05 ± 0.02 10^−3 cm/h
- Tlag ± SD ([3]; frozen skin): 0.86 ± 0.23 h

Molecule: COCC(C)OC(C)=O (stereo not drawn) [PGMEac, propylene glycol methyl ether acetate]
- J ± SD [2]: 59 ± 44 µg/cm^2/h
- Kp ± SD [2]: 0.06 ± 0.006 10^−3 cm/h
- Tlag ± SD [2]: 0.5 ± 0.05 h
